Reference: patent US7612087B2, “Heterocyclic compounds as inhibitors of beta-lactamases” (Novexel, priority 2002, dated 2009)
Like-named read-outs stand apart in the source and are kept apart here.

Assays:
[1] = system: E. coli 250CF1 (Tem3); assay: microbe, parasite or virus in culture; assay type: cell-based; conditions: compound at 5 mg/l, 24 hours at 37° C.; for MIC of Cefotaxime in combination with the compound: Trial 4, 250CF1 E. coli Tem3; for MIC of Piperacillin in combination with the compound: Trial 4, 250CF1 Tem3
Protocol: (§1) The operation is carried out as follows, using the so-called micro-dilution in liquid medium method.
(§2) A series of concentrations of the β-lactamine is prepared in the presence of a constant concentration (5 mg/l) of the product to be studied, each is then seeded with various bacterial strains.
(§3) After incubation for 24 hours in a heating chamber at 37° C., the growth inhibition is evaluated by the absence of any bacterial development, which allows the minimal inhibitory concentrations (MIC) for each strain to be determined, expressed in milligrams/l.

[2] = molecular target: T1, β-lactamase P99 (Enterobacter cloacae, UniProt P05364); assay: biochemical
T1 construct: The β-lactamases are isolated from bacterial strains which are resistant to penicillins and cephalosporins; endogenous in cells; host or cells: Enterobacter cloacae 293HT6 (natural producer; French-press lysate, 100,000 g supernatant)
Protocol: (§4) A. Preparation of the β-lactamases Tem-1 and P99
(§5) The β-lactamases are isolated from bacterial strains which are resistant to penicillins and cephalosporins (Tem1 and P99 are produced by E.coli 250HT21 and E.Cloacae 293HT6 respectively).
(§6) The bacteria are cultured at 37° C. in heart-brain culture at 37 g/l (DIFCO). They are harvested at the end of the exponential phase, cooled down and centrifuged. The bacterial pellets are taken up in sodium phosphate buffer 50 mM, pH 7.0 and centrifuged again. The bacteria are taken up in two volumes of the same buffer and lyzed using a French-Press maintained at 4° C. After centrifugation for 1 hour at 100,000 g, at 4° C., the supernatants containing the soluble fraction of the bacterial extracts are recovered and frozen at −80° C.
(§7) The method uses Nitrocefin (OXOID), cephalosporin chromogene as substrate, of which the product hydrolyzed by the B-lactamases is red and absorbs at 485 nm. Beta-lactamase activity is determined kinetically by measurement of the absorbance variation at 485 nm resulting from the hydrolysis of the substrate using a plate spectrophotometer (Spectra Max More Molecular Devices). The experiments are carried out at 37° C. The quantity of enzyme was normalized and the measurements are carried out at initial speed.
(§8) Two measurements were carried out, without preincubation and with preincubation of the enzyme and inhibitor (5 mn), in order to test the irreversibility of the reaction. The products are tested at 6 or 8 concentrations in duplicate. The reaction mixture contains 100 μM of Nitrocefin and 50 mM sodium phosphate buffer pH7.0.
(§9) The hydrolysis speeds are measured with and without inhibitor. The concentration of inhibitor which inhibits by 50% the hydrolysis reaction of Nitrocefin by the enzyme (CI50) is determined. The data is processed using GraFit software (Erathycus Software).

[3] = system: E. cloacae 293HT6 (Class C); assay: MIC, micro-dilution in liquid medium, β-lactamine with product at 5 mg/l; assay type: cell-based; conditions: compound at 5 mg/l, 24 hours at 37° C.; for MIC of Piperacillin in combination with the compound: Trial 9, 293HT6 Class; for MIC of Cefotaxime in combination with the compound: Trial 9, 293HT6 E. cloacae Class C
Protocol: as §1, §2, §3

[4] = system: P. aeruginosa 391HT8 (PSE); assay: as above; assay type: cell-based; conditions: compound at 5 mg/l, 24 hours at 37° C.; for MIC of Cefotaxime in combination with the compound: Trial 12, 391HT8 P. aeruginosa PSE; for MIC of Piperacillin in combination with the compound: Trial 12, 391HT8 PSE
Protocol: as §1, §2, §3

[5] = system: E. coli 250HT26 (SHV1); assay: as above; assay type: cell-based; conditions: compound at 5 mg/l, 24 hours at 37° C.; for MIC of Cefotaxime in combination with the compound: Trial 6, 250HT26 E. coli SHV1; for MIC of Piperacillin in combination with the compound: Trial 6, 250HT26 SHV1
Protocol: as §1, §2, §3

[6] = system: S. aureus 011GO66 (PeniR); assay: as above; assay type: cell-based; conditions: compound at 5 mg/l, 24 hours at 37° C.; for MIC of Cefotaxime in combination with the compound: Trial 1, 011GO66 S. aureus PeniR; for MIC of Piperacillin in combination with the compound: Trial 1, 011GO66 peniR
Protocol: as §1, §2, §3

[7] = system: E. coli 250SJ1 (Tem7); assay: as above; assay type: cell-based; conditions: compound at 5 mg/l, 24 hours at 37° C.; for MIC of Cefotaxime in combination with the compound: Trial 5, 250SJ1 E. coli Tem7; for MIC of Piperacillin in combination with the compound: Trial 5, 250SJ1 Tem7
Protocol: as §1, §2, §3

[8] = system: Serratia 301HT6; assay: as above; assay type: cell-based; conditions: compound at 5 mg/l; Trial 10, 301HT6 Serratia; 24 hours at 37° C.
Protocol: as §1, §2, §3

[9] = system: E. coli 250HT22 (Tem2); assay: as above; assay type: cell-based; conditions: compound at 5 mg/l, 24 hours at 37° C.; for MIC of Cefotaxime in combination with the compound: Trial 3, 250HT22 E. coli Tem2; for MIC of Piperacillin in combination with the compound: Trial 3, 250HT22 Tem2
Protocol: as §1, §2, §3

[10] = system: E. coli 250BE1 (SHV4); assay: as above; assay type: cell-based; conditions: compound at 5 mg/l, 24 hours at 37° C.; for MIC of Cefotaxime in combination with the compound: Trial 7, 250BE1 E. coli SHV4; for MIC of Piperacillin in combination with the compound: Trial 7, 250BE1 SHV4
Protocol: as §1, §2, §3

[11] = system: E. coli 250HT23 (Class D); assay: as above; assay type: cell-based; conditions: compound at 5 mg/l, 24 hours at 37° C.; for MIC of Piperacillin in combination with the compound: Trial 8, 250HT23 Class D; for MIC of Cefotaxime in combination with the compound: Trial 8, 250HT23 E. coli Class D
Protocol: as §1, §2, §3

[12] = system: P. aeruginosa 391HT7 (PSE); assay: as above; assay type: cell-based; conditions: compound at 5 mg/l, 24 hours at 37° C.; for MIC of Cefotaxime in combination with the compound: Trial 11, 391HT7 P. aeruginosa PSE; for MIC of Piperacillin in combination with the compound: Trial 11, 391HT7 PSE
Protocol: as §1, §2, §3

[13] = system: E. coli 250HT21 (Tem1); assay: as above; assay type: cell-based; conditions: compound at 5 mg/l, 24 hours at 37° C.; for MIC of Cefotaxime in combination with the compound: Trial 2, 250HT21 E. coli Tem1; for MIC of Piperacillin in combination with the compound: Trial 2, 250HT21 Tem1
Protocol: as §1, §2, §3

[14] = molecular target: T2, β-lactamase TEM1 (Escherichia coli, UniProt P62593); assay: Inhibition of isolated β-lactamase Tem-1 (Nitrocefin hydrolysis); assay type: biochemical, E.coli 250HT21; conditions: 100 μM Nitrocefin, 50 mM sodium phosphate buffer pH7.0, 37° C.
T2 construct: The β-lactamases are isolated from bacterial strains which are resistant to penicillins and cephalosporins; endogenous in cells; host or cells: E. coli 250HT21 (natural producer; French-press lysate, 100,000 g supernatant)
Protocol: as §4, §5, §6, §7, §8, §9

[15] = 100 μM Nitrocefin, 50 mM sodium phosphate buffer pH7.0, 37° C., read-out: IC50 nM/P99

T1 sequence (P05364 21-381): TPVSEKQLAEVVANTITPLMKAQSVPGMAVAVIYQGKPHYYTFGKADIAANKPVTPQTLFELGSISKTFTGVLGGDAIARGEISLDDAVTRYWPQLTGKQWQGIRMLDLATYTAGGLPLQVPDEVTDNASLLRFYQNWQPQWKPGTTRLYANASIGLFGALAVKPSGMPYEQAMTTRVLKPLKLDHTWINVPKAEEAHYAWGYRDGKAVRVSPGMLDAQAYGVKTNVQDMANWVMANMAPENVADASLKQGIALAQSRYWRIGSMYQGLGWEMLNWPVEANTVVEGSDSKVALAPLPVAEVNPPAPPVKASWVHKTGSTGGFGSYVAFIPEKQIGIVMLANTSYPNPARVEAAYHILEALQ
T2 sequence (P62593 24-286 limits assumed): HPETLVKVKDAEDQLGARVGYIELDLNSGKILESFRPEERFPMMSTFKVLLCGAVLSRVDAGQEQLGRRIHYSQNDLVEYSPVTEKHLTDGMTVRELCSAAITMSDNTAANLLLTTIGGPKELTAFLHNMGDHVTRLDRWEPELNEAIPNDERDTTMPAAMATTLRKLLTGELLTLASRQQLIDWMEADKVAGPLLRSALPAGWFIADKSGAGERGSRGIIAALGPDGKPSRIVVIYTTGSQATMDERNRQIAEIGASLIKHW

| SMILES | MIC of Cefotaxime in combination with the compound [1] | MIC of Piperacillin in combination with the compound [1] | MIC of Piperacillin in combination with the compound [3] | MIC of Cefotaxime in combination with the compound [3] | MIC of Cefotaxime in combination with the compound [4] | MIC of Piperacillin in combination with the compound [4] | MIC of Cefotaxime in combination with the compound [5] | MIC of Piperacillin in combination with the compound [5] | MIC of Cefotaxime in combination with the compound [6] | MIC of Piperacillin in combination with the compound [6] | MIC of Cefotaxime in combination with the compound [7] | MIC of Piperacillin in combination with the compound [7] | MIC of Cefotaxime in combination with the compound [8] | MIC of Piperacillin in combination with the compound [8] | MIC of Cefotaxime in combination with the compound [9] | MIC of Piperacillin in combination with the compound [9] | MIC of Cefotaxime in combination with the compound [10] | MIC of Piperacillin in combination with the compound [10] | MIC of Piperacillin in combination with the compound [11] | MIC of Cefotaxime in combination with the compound [11] | further results |
| --- | --- | --- | --- | --- | --- | --- | --- | --- | --- | --- | --- | --- | --- | --- | --- | --- | --- | --- | --- | --- | --- |
| NC(=O)[C@@H]1CC[C@@H]2CN1C(=O)N2OS(=O)(=O)O (relative stereo) [Example 33, trans-7-oxo-6-(sulphooxy)-1,6-diazabicyclo[3.2.1]octane-2-carboxamide] | <=0.04 μg/ml | 1.2 µg/mL | 0.6 µg/mL | <=0.04 μg/ml | 20 µg/mL | 10 µg/mL | <=0.04 μg/ml | 1.2 µg/mL | 2.5 µg/mL | 1.2 µg/mL | <=0.04 μg/ml | 0.6 µg/mL | 0.08 µg/mL | 0.6 µg/mL | <=0.04 μg/ml | 0.6 µg/mL | <=0.04 μg/ml | 1.2 µg/mL | 2.5 µg/mL | <=0.04 μg/ml | IC50 [2]: 330 nM; MIC of Cefotaxime in combination with the compound [12]: 20 µg/mL; MIC of Piperacillin in combination with the compound [12]: >40 µg/mL; MIC of Cefotaxime in combination with the compound [13]: <=0.04 μg/ml; MIC of Piperacillin in combination with the compound [13]: 0.3 µg/mL |
| O=C(NCc1ccccc1)[C@H]1CC[C@@H]2CN1C(=O)N2OS(=O)(=O)[O-].[Na+] (relative stereo) [Example 34, sodium salt of trans-7-oxo-N-(phenylmethyl)-6-(sulphooxy)-1,6-diazabicyclo[3.2.1]octane-2-carboxamide] | 0.15 µg/mL | >40 µg/mL | 10 µg/mL | 0.6 µg/mL | 20 µg/mL | >40 µg/mL | <=0.04 μg/ml | 20 µg/mL | 1.2 µg/mL | 0.6 µg/mL | <=0.04 μg/ml | >40 µg/mL | <=0.04 μg/ml | 1.2 µg/mL | <=0.04 μg/ml | >40 µg/mL | 0.08 µg/mL | >40 µg/mL | 40 µg/mL | <=0.04 μg/ml | IC50 [14]: 27 nM; IC50 [2, 15]: 32 nM; MIC of Cefotaxime in combination with the compound [12]: 20 µg/mL; MIC of Piperacillin in combination with the compound [12]: >40 µg/mL; MIC of Cefotaxime in combination with the compound [13]: <=0.04 μg/ml; MIC of Piperacillin in combination with the compound [13]: 5 µg/mL |
| O=C(NCc1ccccn1)[C@H]1CC[C@@H]2CN1C(=O)N2OS(=O)(=O)[O-].[Na+] (relative stereo) [Example 35, sodium salt of trans-7-oxo-N-(2-pyridinylmethyl)-6-(sulphooxy)-1,6-diazabicyclo[3.2.1]octane-2-carboxamide] | 0.15 µg/mL | 10 µg/mL | 5 µg/mL | 0.6 µg/mL | 20 µg/mL | >40 µg/mL | <=0.04 μg/ml | 5 µg/mL | 1.2 µg/mL | 1.2 µg/mL | <=0.04 μg/ml | 5 µg/mL | <=0.04 μg/ml | 1.2 µg/mL | <=0.04 μg/ml | 20 µg/mL | 0.08 µg/mL | 20 µg/mL | 10 µg/mL | <=0.04 μg/ml | IC50 [14]: 53 nM; IC50 [2, 15]: 56 nM; MIC of Cefotaxime in combination with the compound [12]: 20 µg/mL; MIC of Piperacillin in combination with the compound [12]: >40 µg/mL; MIC of Cefotaxime in combination with the compound [13]: <=0.04 μg/ml; MIC of Piperacillin in combination with the compound [13]: 2.5 µg/mL |
